Assay results: patent US20220079924A1, “GLUCOCORTICOID RECEPTOR MODULATORS” (ORIC Pharmaceuticals, Inc., priority 2018, published 2022)

molecular target: T1, GR (Homo sapiens, UniProt P04150); assay: In Vitro GR Luciferase Reporter Assay (antagonist assay); format: cell-based; settings: CHO-K1-GR-MMTV-Luc reporter cells, 10 nM Dexamethasone, 18-24 hours
T1 construct: expressed in transfected cells; host or cells: CHO-K1 (CHO-K1-GR-MMTV-Luc reporter cells)
T1 sequence (P04150 1-777): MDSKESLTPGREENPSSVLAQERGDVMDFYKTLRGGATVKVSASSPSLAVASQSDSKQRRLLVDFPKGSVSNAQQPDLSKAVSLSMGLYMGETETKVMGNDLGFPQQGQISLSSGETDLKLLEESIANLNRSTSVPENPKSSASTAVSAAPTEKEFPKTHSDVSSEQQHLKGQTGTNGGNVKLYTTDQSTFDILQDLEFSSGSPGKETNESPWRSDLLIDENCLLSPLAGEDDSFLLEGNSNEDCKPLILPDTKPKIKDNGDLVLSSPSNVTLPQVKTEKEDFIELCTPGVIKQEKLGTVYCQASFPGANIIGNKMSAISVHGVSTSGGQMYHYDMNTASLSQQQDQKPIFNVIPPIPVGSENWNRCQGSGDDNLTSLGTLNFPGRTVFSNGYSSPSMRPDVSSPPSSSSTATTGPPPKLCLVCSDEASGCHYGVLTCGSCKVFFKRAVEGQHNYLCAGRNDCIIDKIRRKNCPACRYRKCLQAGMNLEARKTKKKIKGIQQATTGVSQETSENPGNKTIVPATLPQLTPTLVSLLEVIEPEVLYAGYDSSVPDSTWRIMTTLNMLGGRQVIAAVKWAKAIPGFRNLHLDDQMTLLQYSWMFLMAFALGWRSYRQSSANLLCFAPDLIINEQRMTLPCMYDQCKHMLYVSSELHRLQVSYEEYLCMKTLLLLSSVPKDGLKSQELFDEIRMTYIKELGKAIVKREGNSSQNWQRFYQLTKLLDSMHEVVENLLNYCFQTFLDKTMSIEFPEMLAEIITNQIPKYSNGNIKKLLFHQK
Method: Example A: In Vitro GR Luciferase Reporter Assay
Cell Line: CHO-K1-GR-MMTV-Luc reporter cells
Culture Media: DMEM (with phenol red)+10% FBS
Assay Media: DMEM (without phenol red)+10% CSS
Culture CHO-K1-GR-MMTV-Luc reporter cells in T175 flasks in Culture Media at conditions less than 90% confluence.
Using Bravo (Agilent) liquid handler:
200× DMSO 1:3 serial dilutions of control and test compounds in 96-well non-sterile V bottom plate in DMSO, 12 points for each compound were prepared.
Prepared 5× compound serial dilutions: Add 97.5 μL/well of Assay Media into 96-well non-sterile V bottom plate then added 2.5 ul of 200× concentration of compounds and mix well.
Seeded cells for Antagonist Assay: 5200 CHO-K1-GR-MMTV-Luc reporter cells were seeded in Greiner #781080 flat clear bottom 384-well white TC plate in 20 ul of Assay Media containing 12.5 nM Dexamethasone (final concentration=10 nM).
Added compounds: 5 μl of 5× compounds were added to appropriate wells and followed with a quick spin (1000 rpm, 10 sec) to bring media and cells to the bottom of plate. The plates were covered with SealMate film to avoid evaporation and placed in 37° C. incubator for approximately 18-24 hours.
Read plates: Equilibrate appropriate amount of Promega OneGlo luciferase reagent to room temperature. Remove the plates from incubator and add 25 uL of OneGlo reagent/well by Bravo and read the plates on Tecan Spark plate reader within 15 minutes.
The ability of the compounds disclosed herein to inhibit GR activity was quantified and the respective IC50 value was determined. Table 1 provides the cellular IC50 values of compounds disclosed herein.

Question: With `Cn1cnc(S(=O)(=O)N(CC(F)F)[C@H]2CCC3=Cc4c(cnn4-c4ccc(F)cc4)C[C@]3(C(=O)c3cc(F)ccn3)C2)n1` [Example 30] as the compound, how does the IC50 read?
Answer: ≤ 100 nM

Question: How did the IC50 turn out when `CC(C)N([C@H]1CCC2=Cc3c(cnn3-c3ccc(F)nc3)C[C@]2(C(=O)c2cc(Cl)ccn2)C1)S(=O)(=O)c1ncn(C)n1` [Example 52] was run?
Answer: ≤ 100 nM

Question: How did the IC50 turn out when `C[C@H]([C@H]1CCC2=Cc3c(cnn3-c3ccc(F)cc3)C[C@]2(C(=O)c2ncc(C(F)(F)F)s2)C1)S(=O)(=O)c1ncn(C)n1` [Example 56] was run?
Answer: ≤ 100 nM

Question: `Cn1cc(S(=O)(=O)N(CCF)[C@H]2CCC3=Cc4c(cnn4-c4ccc(F)cc4)C[C@]3(C(=O)c3cc(C(F)(F)F)ccn3)C2)cn1` [Example 32] was tested. Which IC50 did it give?
Answer: ≤ 100 nM

Question: How did the IC50 turn out when `Cn1cc(-n2ncc3c2C=C2CC[C@H](N(C4CC4)S(=O)(=O)c4ccc(F)cc4)C[C@@]2(C(=O)c2cc(C(F)(F)F)ccn2)C3)ccc1=O` [Example 73] was run?
Answer: > 1000 nM

Question: For `Cn1ccc(S(=O)(=O)N(C2CC2)[C@H]2CCC3=Cc4c(cnn4-c4ccc(F)nc4)C[C@]3(C(=O)c3cc(F)ccn3)C2)n1` [Example 89], which IC50 is on record?
Answer: ≤ 100 nM

Question: Which IC50 does the source give for `Cn1cc(S(=O)(=O)N(C2CC2)[C@H]2CCC3=Cc4c(cnn4-c4ccc(F)nc4)C[C@]3(C(=O)c3ncc(C(F)(F)F)s3)C2)cn1` [Example 16] here?
Answer: ≤ 100 nM

Question: With `Cn1cnc(S(=O)(=O)N([C@H]2CCC3=Cc4c(cnn4-c4ccc(F)cc4)C[C@]3(C(=O)c3cc(C(F)(F)F)ccn3)C2)[C@H]2C[C@](O)(C(F)(F)F)C2)n1` [Example 42] as the compound, how does the IC50 read?
Answer: 100 to 1000 nM

Question: How did the IC50 turn out when `O=C(c1cc(F)ccn1)[C@]12Cc3cnn(-c4ccc(F)cc4)c3C=C1CC[C@H](N(CC(F)F)S(=O)(=O)c1ccc(F)cc1)C2` [Example 25] was run?
Answer: ≤ 100 nM

Question: For `C[C@H]([C@H]1CCC2=Cc3c(cnn3-c3ccc(F)cc3)C[C@]2(C(=O)c2ccc(C(F)(F)F)cn2)C1)S(=O)(=O)c1cnn(C)c1` [Example 35], which IC50 is on record?
Answer: ≤ 100 nM

Question: Which IC50 does the source give for `Cn1cnc(S(=O)(=O)N(CC(F)(F)F)[C@H]2CCC3=Cc4c(cnn4-c4ccc(F)cc4)C[C@]3(C(=O)c3cc(F)ccn3)C2)c1` [Example 82] here?
Answer: ≤ 100 nM

Question: Which IC50 does the source give for `Cn1cc(S(=O)(=O)N(CC(F)F)[C@H]2CCC3=Cc4c(cnn4-c4ccc(F)cc4)C[C@]3(C(=O)c3ncc(C(F)(F)F)s3)C2)cn1` [Example 12] here?
Answer: ≤ 100 nM

Question: With `Cn1cc(S(=O)(=O)N(CCOC(F)(F)F)[C@H]2CCC3=Cc4c(cnn4-c4ccc(F)cc4)C[C@]3(C(=O)c3cc(C(F)(F)F)ccn3)C2)cn1` [Example 60] as the compound, how does the IC50 read?
Answer: ≤ 100 nM

Question: For `Cn1cnc(S(=O)(=O)N(C2CC(F)(F)C2)[C@H]2CCC3=Cc4c(cnn4-c4ccc(F)nc4)C[C@]3(C(=O)c3cc(C(C)(C)C)ccn3)C2)n1` [Example 75], which IC50 is on record?
Answer: ≤ 100 nM

Question: How did the IC50 turn out when `C[C@H]([C@H]1CCC2=Cc3c(cnn3-c3ccc(F)cc3)C[C@]2(C(=O)c2cc(Cl)ccn2)C1)S(=O)(=O)c1ncn(C)n1` [Example 86] was run?
Answer: ≤ 100 nM

Question: Which IC50 does the source give for `Cn1cc(S(=O)(=O)N(CCF)[C@H]2CCC3=Cc4c(cnn4-c4ccc(F)cc4)C[C@]3(C(=O)c3cc(F)ccn3)C2)cn1` [Example 5, N-(2-Fluoroethyl)-N-((4aS,6S)-1-(4-fluorophenyl)-4a-(4-fluoropicolinoyl)-4,4a,5,6,7,8-hexahydro-1H-benzo[f]indazol-6-yl)-1-methyl-1H-pyrazole-4-sulfonamide] here?
Answer: ≤ 100 nM

Question: `O=C(c1cc(Cl)ccn1)[C@]12Cc3cnn(-c4ccc(F)cc4)c3C=C1CC[C@H](N(CC(F)F)S(=O)(=O)c1ccc(F)cc1)C2` [Example 28] was tested. Which IC50 did it give?
Answer: ≤ 100 nM

Question: How did the IC50 turn out when `Cn1cnc(S(=O)(=O)N(C2CC2)[C@H]2CCC3=Cc4c(cnn4-c4ccc(F)cc4)C[C@]3(C(=O)c3ncc(C(C)(C)C)s3)C2)c1` [Example 1, N-((4aS,6S)-4a-(5-(tert-Butyl)thiazole-2-carbonyl)-1-(4-fluorophenyl)-4,4a,5,6,7,8-hexahydro-1H-benzo[f]indazol-6-yl)-N-cyclopropyl-1-methyl-1H-imidazole-4-sulfonamide] was run?
Answer: ≤ 100 nM

Question: `CC(C)N([C@H]1CCC2=Cc3c(cnn3-c3ccc(F)cc3)C[C@]2(C(=O)c2cc(F)ccn2)C1)S(=O)(=O)c1cnn(C)c1` [Example 79] was tested. Which IC50 did it give?
Answer: ≤ 100 nM

Question: With `Cn1ccc(S(=O)(=O)C(C)(C)[C@H]2CCC3=Cc4c(cnn4-c4ccc(F)cc4)C[C@]3(C(=O)c3cc(C(F)(F)F)ccn3)C2)n1` [Example 88] as the compound, how does the IC50 read?
Answer: ≤ 100 nM

Question: Which IC50 does the source give for `Cn1cc(S(=O)(=O)C[C@H]2CCC3=Cc4c(cnn4-c4ccc(F)cc4)C[C@]3(C(=O)c3cc(F)ccn3)C2)cn1` [Example 15] here?
Answer: ≤ 100 nM

Question: Which IC50 does the source give for `Cn1cnc(S(=O)(=O)N(C2CC2)[C@H]2CCC3=Cc4c(cnn4-c4ccnc(F)c4)C[C@]3(C(=O)c3cc(C(F)(F)F)ccn3)C2)n1` [Example 40] here?
Answer: ≤ 100 nM

Question: Which IC50 does the source give for `CC(C)N([C@H]1CCC2=Cc3c(cnn3-c3ccc(F)nc3)C[C@]2(C(=O)c2cc(C(F)(F)F)ccn2)C1)S(=O)(=O)c1ncn(C)n1` [Example 51] here?
Answer: ≤ 100 nM

Question: Which IC50 does the source give for `C[C@@H]([C@H]1CCC2=Cc3c(cnn3-c3ccc(F)cc3)C[C@]2(C(=O)c2ncc(C(F)(F)F)s2)C1)S(=O)(=O)c1cnn(C)c1` (single isomer, unassigned) [Example 10, ((4aR,6S)-1-(4-Fluorophenyl)-6-((R)-1-((1-methyl-1H-pyrazol-4-yl)sulfonyl)ethyl)-1,4,5,6,7,8-hexahydro-4aH-benzo[f]indazol-4a-yl)(5-(trifluoromethyl)thiazol-2-yl)methanone or ((4aR,6S)-1-(4-fluorophenyl)-6-((S)-1-((1-methyl-1H-pyrazol-4-yl)sulfonyl)ethyl)-1,4,5,6,7,8-hexahydro-4aH-benzo[f]indazol-4a-yl)(5-(trifluoromethyl)thiazol-2-yl)methanone] here?
Answer: ≤ 100 nM

Question: For `Cn1cc(S(=O)(=O)N(C2CC(F)(F)C2)[C@H]2CCC3=Cc4c(cnn4-c4ccc(F)nc4)C[C@]3(C(=O)c3cc(C(C)(C)C)ccn3)C2)cn1` [Example 76], which IC50 is on record?
Answer: ≤ 100 nM

Question: Which IC50 does the source give for `Cn1cnc(S(=O)(=O)[C@H]2CCC3=Cc4c(cnn4-c4ccc(F)cc4)C[C@]3(C(=O)c3ccc(C(F)F)cn3)C2)n1` [Example 92] here?
Answer: ≤ 100 nM

Question: With `C[C@H]([C@H]1CCC2=Cc3c(cnn3-c3ccc(F)cc3)C[C@]2(C(=O)c2cc(F)ccn2)C1)S(=O)(=O)c1cnn(C)c1` [Example 62] as the compound, how does the IC50 read?
Answer: ≤ 100 nM

Question: With `CC(C)N([C@H]1CCC2=Cc3c(cnn3-c3ccc(F)nc3)C[C@]2(C(=O)c2cc(C(F)(F)F)ccn2)C1)S(=O)(=O)c1cnn(C)c1` [Example 69] as the compound, how does the IC50 read?
Answer: ≤ 100 nM

Question: `CC([C@H]1CCC2=Cc3c(cnn3-c3ccc(F)cc3)C[C@]2(C(=O)c2cc(F)ccn2)C1)S(=O)(=O)c1ncn(C)n1` (stereo partly shown) [Example 77] was tested. Which IC50 did it give?
Answer: ≤ 100 nM

Question: Which IC50 does the source give for `C[C@H]([C@H]1CCC2=Cc3c(cnn3-c3ccc(F)cc3)C[C@]2(C(=O)c2ncc(C(F)(F)F)s2)C1)S(=O)(=O)c1cnn(C)c1` (single isomer, unassigned) [Example 9, ((4aR,6S)-1-(4-Fluorophenyl)-6-((R)-1-((1-methyl-1H-pyrazol-4-yl)sulfonyl)ethyl)-1,4,5,6,7,8-hexahydro-4aH-benzo[f]indazol-4a-yl)(5-(trifluoromethyl)thiazol-2-yl)methanone or ((4aR,6S)-1-(4-fluorophenyl)-6-((S)-1-((1-methyl-1H-pyrazol-4-yl)sulfonyl)ethyl)-1,4,5,6,7,8-hexahydro-4aH-benzo[f]indazol-4a-yl)(5-(trifluoromethyl)thiazol-2-yl)methanone] here?
Answer: ≤ 100 nM

Question: How did the IC50 turn out when `CCn1cnc(S(=O)(=O)[C@H]2CCC3=Cc4c(cnn4-c4ccc(F)cc4)C[C@]3(C(=O)c3ccc(C(F)(F)F)cn3)C2)n1` [Example 93] was run?
Answer: ≤ 100 nM

Question: Which IC50 does the source give for `Cn1cnc(S(=O)(=O)[C@H]2CCC3=Cc4c(cnn4-c4ccc(F)cc4)C[C@]3(C(=O)c3cc4c(cn3)OCCO4)C2)n1` [Example 97] here?
Answer: ≤ 100 nM

Question: With `O=C(c1cc(F)ccn1)[C@]12Cc3cnn(-c4ccc(F)nc4)c3C=C1CC[C@H](N(C1CC1)S(=O)(=O)c1ccc(F)cc1)C2` [Example 27] as the compound, how does the IC50 read?
Answer: ≤ 100 nM

Question: Which IC50 does the source give for `Cn1cnc(S(=O)(=O)N(C2CC2)[C@H]2CCC3=Cc4c(cnn4-c4ccc(F)cc4)C[C@]3(C(=O)c3csc(C(F)(F)F)n3)C2)n1` [Example 22] here?
Answer: ≤ 100 nM
